Test results as given in the supplement of paper PMC10307832.

Tests used:
Assay in all cases: relative viability (nuclei count vs DMSO), 5 days (fraction); higher = more cells survive
SW 1573 = test system: SW 1573
Procedure, shortened: (§1)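 A single step with final 0.05% Triton X-100, 1% formaldehyde and 1 ug/ml Hoechst fixed the cells and stained nuclei 5 days after treatment. Lung cancer cell lines in 1536-well plates had been treated by pin tool the day after seeding with one drug alone or a fixed anchor-drug dose plus five library-drug doses (not always all listed) in √10 steps, and nuclei were counted on 4× images. Relative viability is the ratio of nuclei in treated wells to nuclei in vehicle wells, taken as the median of duplicate plates.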

NCI-H1993 = test system: NCI-H1993
Procedure, shortened: as §1

EMC-BAC-2 = test system: EMC-BAC-2
Procedure, shortened: as §1

NCI-H2085 = test system: NCI-H2085
Procedure, shortened: as §1

NCI-H647 = test system: NCI-H647
Procedure, shortened: as §1

SK-LU-1 = test system: SK-LU-1
Procedure, shortened: as §1

NCI-H322M = test system: NCI-H322M
Procedure, shortened: as §1

BEN = test system: BEN
Procedure, shortened: as §1

NCI-H727 = test system: NCI-H727
Procedure, shortened: as §1

LXF-289 = test system: LXF-289
Procedure, shortened: as §1

NCI-H1650 = test system: NCI-H1650
Procedure, shortened: as §1

LCLC-97TM1 = test system: LCLC-97TM1
Procedure, shortened: as §1

PC-14 = test system: PC-14
Procedure, shortened: as §1

HOP-62 = test system: HOP-62
Procedure, shortened: as §1

NCI-H1915 = test system: NCI-H1915
Procedure, shortened: as §1

NCI-H2009 = test system: NCI-H2009
Procedure, shortened: as §1

NCI-H661 = test system: NCI-H661
Procedure, shortened: as §1

H3255 = test system: H3255
Procedure, shortened: as §1

NCI-H1563 = test system: NCI-H1563
Procedure, shortened: as §1

NCI-H2126 = test system: NCI-H2126
Procedure, shortened: as §1

NCI-H2347 = test system: NCI-H2347
Procedure, shortened: as §1

NCI-H2342 = test system: NCI-H2342
Procedure, shortened: as §1

NCI-H2023 = test system: NCI-H2023
Procedure, shortened: as §1

NCI-H358 = test system: NCI-H358
Procedure, shortened: as §1

In the case of `COc1cc(N2CCC(C(N)=O)CC2)ccc1Nc1nc(N)c(Cl)c(Nc2ccccc2S(=O)(=O)C(C)C)n1` [HG-5-88-01] + COc1cccc2cc(-c3nc([C@H]4CC[C@H](C(=O)O)CC4)n4ncnc(N)c34)[nH]c12 [OSI-027] (partner 0.5 µM), the relative viability (SW 1573; first compound 0.04 µM) is reported as 0.624, the relative viability (SW 1573; first compound 0.1265 µM) is reported as 0.609 and the relative viability (SW 1573; first compound 0.4 µM) is reported as 0.359. The relative viability (SW 1573; first compound 1.265 µM) was 0.306, the relative viability (SW 1573; first compound 4 µM) was 0.375 and the relative viability (NCI-H1993; first compound 0.04 µM) was 0.536. It also gave a relative viability (NCI-H1993; first compound 0.1265 µM) of 0.504, a relative viability (NCI-H1993; first compound 0.4 µM) of 0.52 and a relative viability (NCI-H1993; first compound 1.265 µM) of 0.532. For the same compound, the relative viability (NCI-H1993; first compound 4 µM) was 0.536, the relative viability (EMC-BAC-2; first compound 0.04 µM) was 0.361 and the relative viability (EMC-BAC-2; first compound 0.1265 µM) was 0.371. For the same compound, the relative viability (EMC-BAC-2; first compound 0.4 µM) was 0.326, the relative viability (EMC-BAC-2; first compound 1.265 µM) was 0.307 and the relative viability (EMC-BAC-2; first compound 4 µM) was 0.251. For the same compound, the relative viability (NCI-H2085; first compound 0.04 µM) was 0.713, the relative viability (NCI-H2085; first compound 0.1265 µM) was 0.872 and the relative viability (NCI-H2085; first compound 0.4 µM) was 0.615. It also gave a relative viability (NCI-H2085; first compound 1.265 µM) of 0.384, a relative viability (NCI-H2085; first compound 4 µM) of 0.321 and a relative viability (NCI-H647; first compound 0.04 µM) of 0.622. For the same compound, the relative viability (NCI-H647; first compound 0.1265 µM) was 0.63, the relative viability (NCI-H647; first compound 0.4 µM) was 0.613 and the relative viability (NCI-H647; first compound 1.265 µM) was 0.566. For the same compound, the relative viability (NCI-H647; first compound 4 µM) was 0.648, the relative viability (SK-LU-1; first compound 0.04 µM) was 0.292 and the relative viability (SK-LU-1; first compound 0.1265 µM) was 0.34. It also gave a relative viability (SK-LU-1; first compound 0.4 µM) of 0.278, a relative viability (SK-LU-1; first compound 1.265 µM) of 0.235 and a relative viability (SK-LU-1; first compound 4 µM) of 0.174. For the same compound, the relative viability (NCI-H322M; first compound 0.04 µM) was 0.501, the relative viability (NCI-H322M; first compound 0.1265 µM) was 0.481 and the relative viability (NCI-H322M; first compound 0.4 µM) was 0.448. It also gave a relative viability (NCI-H322M; first compound 4 µM) of 0.293, a relative viability (BEN; first compound 0.04 µM) of 0.305 and a relative viability (BEN; first compound 0.1265 µM) of 0.312. For the same compound, the relative viability (BEN; first compound 0.4 µM) was 0.262, the relative viability (BEN; first compound 1.265 µM) was 0.3 and the relative viability (BEN; first compound 4 µM) was 0.262. For the same compound, the relative viability (NCI-H727; first compound 0.04 µM) was 0.423, the relative viability (NCI-H727; first compound 0.1265 µM) was 0.619 and the relative viability (NCI-H727; first compound 0.4 µM) was 0.493. The relative viability (NCI-H727; first compound 1.265 µM) was 0.424, the relative viability (NCI-H727; first compound 4 µM) was 0.355 and the relative viability (LXF-289; first compound 0.04 µM) was 0.755. For the same compound, the relative viability (LXF-289; first compound 0.1265 µM) was 0.815, the relative viability (LXF-289; first compound 0.4 µM) was 0.77 and the relative viability (LXF-289; first compound 1.265 µM) was 0.635. The relative viability (LXF-289; first compound 4 µM) was 0.337, the relative viability (NCI-H1650; first compound 0.04 µM) was 0.603 and the relative viability (NCI-H1650; first compound 0.1265 µM) was 0.657. For the same compound, the relative viability (NCI-H1650; first compound 0.4 µM) was 0.399, the relative viability (NCI-H1650; first compound 1.265 µM) was 0.32 and the relative viability (NCI-H1650; first compound 4 µM) was 0.265. It also gave a relative viability (LCLC-97TM1; first compound 0.04 µM) of 0.445, a relative viability (LCLC-97TM1; first compound 0.1265 µM) of 0.521 and a relative viability (LCLC-97TM1; first compound 0.4 µM) of 0.238. The relative viability (LCLC-97TM1; first compound 1.265 µM) was 0.305, the relative viability (LCLC-97TM1; first compound 4 µM) was 0.131 and the relative viability (PC-14; first compound 0.04 µM) was 0.849. For the same compound, the relative viability (PC-14; first compound 0.1265 µM) was 1.12, the relative viability (PC-14; first compound 0.4 µM) was 0.65 and the relative viability (PC-14; first compound 1.265 µM) was 0.321. The relative viability (PC-14; first compound 4 µM) was 0.218, the relative viability (HOP-62; first compound 0.04 µM) was 0.726 and the relative viability (HOP-62; first compound 0.1265 µM) was 0.949. For the same compound, the relative viability (HOP-62; first compound 0.4 µM) was 0.828, the relative viability (HOP-62; first compound 1.265 µM) was 0.856 and the relative viability (HOP-62; first compound 4 µM) was 0.737. It also gave a relative viability (NCI-H1915; first compound 0.04 µM) of 0.63, a relative viability (NCI-H1915; first compound 0.1265 µM) of 0.625 and a relative viability (NCI-H1915; first compound 0.4 µM) of 0.69. The relative viability (NCI-H1915; first compound 1.265 µM) was 0.697, the relative viability (NCI-H1915; first compound 4 µM) was 0.527 and the relative viability (NCI-H2009; first compound 0.04 µM) was 0.565. It also gave a relative viability (NCI-H2009; first compound 0.1265 µM) of 0.585, a relative viability (NCI-H2009; first compound 0.4 µM) of 0.423 and a relative viability (NCI-H2009; first compound 1.265 µM) of 0.444. The relative viability (NCI-H2009; first compound 4 µM) was 0.353, the relative viability (NCI-H661; first compound 0.04 µM) was 0.659 and the relative viability (NCI-H661; first compound 0.1265 µM) was 0.709. The relative viability (NCI-H661; first compound 0.4 µM) was 0.684, the relative viability (NCI-H661; first compound 1.265 µM) was 0.428 and the relative viability (NCI-H661; first compound 4 µM) was 0.569. For the same compound, the relative viability (H3255; first compound 0.04 µM) was 0.558, the relative viability (H3255; first compound 0.1265 µM) was 0.538 and the relative viability (H3255; first compound 0.4 µM) was 0.643. For the same compound, the relative viability (H3255; first compound 4 µM) was 0.432, the relative viability (NCI-H1563; first compound 0.04 µM) was 0.715 and the relative viability (NCI-H1563; first compound 0.1265 µM) was 0.754. It also gave a relative viability (NCI-H1563; first compound 0.4 µM) of 0.709, a relative viability (NCI-H1563; first compound 1.265 µM) of 0.638 and a relative viability (NCI-H1563; first compound 4 µM) of 0.573. For the same compound, the relative viability (NCI-H2126; first compound 0.1265 µM) was 0.688, the relative viability (NCI-H2126; first compound 0.4 µM) was 0.71 and the relative viability (NCI-H2126; first compound 1.265 µM) was 0.518. It also gave a relative viability (NCI-H2126; first compound 4 µM) of 0.432, a relative viability (NCI-H2347; first compound 0.04 µM) of 0.363 and a relative viability (NCI-H2347; first compound 0.1265 µM) of 0.448. The relative viability (NCI-H2347; first compound 0.4 µM) was 0.388, the relative viability (NCI-H2347; first compound 1.265 µM) was 0.25 and the relative viability (NCI-H2347; first compound 4 µM) was 0.274. For the same compound, the relative viability (NCI-H2342; first compound 0.04 µM) was 0.607, the relative viability (NCI-H2342; first compound 0.1265 µM) was 0.527 and the relative viability (NCI-H2342; first compound 0.4 µM) was 0.611. The relative viability (NCI-H2342; first compound 1.265 µM) was 0.485, the relative viability (NCI-H2342; first compound 4 µM) was 0.563 and the relative viability (NCI-H2023; first compound 0.04 µM) was 0.433. It also gave a relative viability (NCI-H2023; first compound 0.1265 µM) of 0.407, a relative viability (NCI-H2023; first compound 0.4 µM) of 0.205 and a relative viability (NCI-H2023; first compound 1.265 µM) of 0.109. For the same compound, the relative viability (NCI-H2023; first compound 4 µM) was 0.127, the relative viability (NCI-H358; first compound 0.04 µM) was 0.692 and the relative viability (NCI-H358; first compound 0.1265 µM) was 0.673. The relative viability (NCI-H358; first compound 0.4 µM) was 0.588, the relative viability (NCI-H358; first compound 1.265 µM) was 0.234 and the relative viability (NCI-H358; first compound 4 µM) was 0.133.
